From PubChem BioAssay AID1745844 (Carcinogenic Potency Database (CPDB), 2022)
The source made the active and inactive calls. How the calls were made is not given here.

System: rodent lifetime carcinogenesis bioassay, tumor incidence TD50
Experiment: carcinogenic potency in animals, long-term in vivo studies, CPDB compilation (AID 1745844)

C=CCN(CC(O)CO)N=O (centres undefined)
TD50 (rat, strain Fischer 344, females, in drinking water, site: esophagus, lesion: carcinoma, dosed 50 weeks, study length 55 weeks): 1.13 mg/kg/day
TD50 (rat, strain Fischer 344, females, in drinking water, site: esophagus, lesion: several types, types named in the paper, dosed 50 weeks, study length 55 weeks): 0.825 mg/kg/day
carcinogen call (rat, strain Fischer 344, females, in drinking water, site: liver, lesion: neoplastic nodule, dosed 50 weeks, study length 55 weeks): negative (inactive)
TD50 (rat, strain Fischer 344, females, in drinking water, site: nasal cavity, lesion: several types, types named in the paper, dosed 50 weeks, study length 55 weeks): 0.972 mg/kg/day

CC[C@H](C)C(=O)O[C@H]1C[C@@H](C)C=C2C=C[C@H](C)[C@H](CC[C@@H]3C[C@@H](O)CC(=O)O3)[C@H]21
TD50 (mouse, strain Charles River CD1, females, by gavage, site: forestomach, lesion: squamous-cell carcinoma, dosed 92 weeks, study length 92 weeks): 38400 mg/kg/day
TD50 (mouse, strain Charles River CD1, females, by gavage, site: forestomach, lesion: squamous-cell papilloma, dosed 92 weeks, study length 92 weeks): 1020 mg/kg/day
TD50 (mouse, strain Charles River CD1, females, by gavage, site: liver, lesion: hepatocellular carcinoma, dosed 92 weeks, study length 92 weeks): 2240 mg/kg/day
TD50 (mouse, strain Charles River CD1, females, by gavage, site: liver, lesion: several types, types named in the paper, dosed 92 weeks, study length 92 weeks): 623 mg/kg/day
TD50 (mouse, strain Charles River CD1, females, by gavage, site: lung, lesion: adenocarcinoma, dosed 92 weeks, study length 92 weeks): 57400 mg/kg/day
TD50 (mouse, strain Charles River CD1, females, by gavage, site: lung, lesion: alveolar-cell adenoma, dosed 92 weeks, study length 92 weeks): 1220 mg/kg/day
TD50 (mouse, strain Charles River CD1, males, by gavage, site: forestomach, lesion: squamous-cell papilloma, dosed 92 weeks, study length 92 weeks): 8550 mg/kg/day
TD50 (mouse, strain Charles River CD1, males, by gavage, site: liver, lesion: hepatocellular carcinoma, dosed 92 weeks, study length 92 weeks): 708 mg/kg/day
TD50 (mouse, strain Charles River CD1, males, by gavage, site: liver, lesion: several types, types named in the paper, dosed 92 weeks, study length 92 weeks): 439 mg/kg/day
TD50 (rat, strain Charles River CD (Sprague-Dawley), females, by gavage, site: liver, lesion: hepatocellular adenoma, dosed 105 weeks, study length 105 weeks): 19900 mg/kg/day (inactive)
carcinogen call (rat, strain Charles River CD (Sprague-Dawley), males, by gavage, site: liver, lesion: hepatocellular adenoma, dosed 105 weeks, study length 105 weeks): negative (inactive)
TD50 (rat, strain Charles River CD (Sprague-Dawley), males, by gavage, site: liver, lesion: hepatocellular carcinoma, dosed 105 weeks, study length 105 weeks): 2330 mg/kg/day (inactive)

COc1cc(/C=C/C(=O)O[C@H]2CC[C@]34C[C@]35CC[C@]3(C)[C@@H]([C@H](C)CCC=C(C)C)CC[C@@]3(C)[C@@H]5CC[C@H]4C2(C)C)ccc1O
TD50 (mouse, strain B6C3F1, females, in feed, site: all sites, lesion: malignant lymphoma, dosed 78 weeks, study length 79 weeks): 5970 mg/kg/day (inactive)
carcinogen call (mouse, strain B6C3F1, females, in feed, site: liver, lesion: hepatocellular carcinoma, dosed 78 weeks, study length 79 weeks): negative (inactive)
carcinogen call (mouse, strain B6C3F1, females, in feed, site: liver, lesion: neoplastic nodule, dosed 78 weeks, study length 79 weeks): negative (inactive)
carcinogen call (mouse, strain B6C3F1, females, in feed, site: lung, lesion: alveolar/bronchiolar adenoma, dosed 78 weeks, study length 79 weeks): negative (inactive)
TD50 (mouse, strain B6C3F1, males, in feed, site: all sites, lesion: malignant lymphoma, dosed 78 weeks, study length 79 weeks): 15900 mg/kg/day (inactive)
carcinogen call (mouse, strain B6C3F1, males, in feed, site: liver, lesion: hepatocellular carcinoma, dosed 78 weeks, study length 79 weeks): negative (inactive)
carcinogen call (mouse, strain B6C3F1, males, in feed, site: liver, lesion: neoplastic nodule, dosed 78 weeks, study length 79 weeks): negative (inactive)
carcinogen call (mouse, strain B6C3F1, males, in feed, site: lung, lesion: alveolar/bronchiolar adenocarcinoma, dosed 78 weeks, study length 79 weeks): negative (inactive)
carcinogen call (mouse, strain B6C3F1, males, in feed, site: lung, lesion: alveolar/bronchiolar adenoma, dosed 78 weeks, study length 79 weeks): negative (inactive)
carcinogen call (rat, strain F344/DuCrj, females, in feed, site: liver, lesion: neoplastic nodule, dosed 104 weeks, study length 105 weeks): negative (inactive)
TD50 (rat, strain F344/DuCrj, males, in feed, site: liver, lesion: neoplastic nodule, dosed 104 weeks, study length 105 weeks): 68500 mg/kg/day (inactive)

O=C1CCCCCN1
carcinogen call (mouse, strain B6C3F1, females, in feed, site: any site (literature study), lesion: several types, types named in the paper, dosed 103 weeks, study length 105 weeks): negative (inactive)
carcinogen call (mouse, strain B6C3F1, males, in feed, site: any site (literature study), lesion: several types, types named in the paper, dosed 103 weeks, study length 105 weeks): negative (inactive)
TD50 (mouse, strain B6C3F1, males, in feed, site: liver, lesion: hepatocellular adenoma + hepatocellular carcinoma + neoplastic nodule, dosed 103 weeks, study length 105 weeks): 34300 mg/kg/day
carcinogen call (rat, strain Fischer 344, females, in feed, site: any site (literature study), lesion: several types, types named in the paper, dosed 103 weeks, study length 105 weeks): negative (inactive)
TD50 (rat, strain Fischer 344, males, in feed, site: liver, lesion: hepatocellular adenoma + hepatocellular carcinoma + neoplastic nodule, dosed 103 weeks, study length 105 weeks): 5690 mg/kg/day
TD50 (rat, strain Fischer 344, males, in feed, site: pituitary gland, lesion: carcinoma, NOS, dosed 103 weeks, study length 105 weeks): 3560 mg/kg/day (inactive)

COc1cc(C=NNC(=O)c2ccncc2)ccc1O
TD50 (mouse, strain Not specified, both sexes, by gavage, site: any site (literature study), lesion: several types, types named in the paper, dosed 52 weeks, study length 52 weeks): 27.4 mg/kg/day
TD50 (mouse, strain Not specified, both sexes, by gavage, site: lung, lesion: adenocarcinoma, dosed 52 weeks, study length 52 weeks): 45 mg/kg/day
TD50 (mouse, strain Not specified, both sexes, by gavage, site: mammary gland, lesion: adenocarcinoma, dosed 52 weeks, study length 52 weeks): 86.6 mg/kg/day

[K+]
TD50 (rat, strain F344/DuCrj, females, in drinking water, site: submandibular salivary gland, lesion: squamous-cell carcinoma, dosed 104 weeks, study length 104 weeks): 560 mg/kg/day
TD50 (rat, strain F344/DuCrj, females, in drinking water, site: uterus, lesion: endometrial stromal polyp, dosed 104 weeks, study length 104 weeks): 204 mg/kg/day (inactive)
TD50 (rat, strain F344/DuCrj, males, in drinking water, site: submandibular salivary gland, lesion: squamous-cell carcinoma, dosed 104 weeks, study length 104 weeks): 363 mg/kg/day
